Experimental data from paper PMC6125784 (Cell chemical biology, 2018).

Target: T1, CobL (Rhodobacter capsulatus, UniProt D5AV04)
T1 sequence (D5AV04 1-396): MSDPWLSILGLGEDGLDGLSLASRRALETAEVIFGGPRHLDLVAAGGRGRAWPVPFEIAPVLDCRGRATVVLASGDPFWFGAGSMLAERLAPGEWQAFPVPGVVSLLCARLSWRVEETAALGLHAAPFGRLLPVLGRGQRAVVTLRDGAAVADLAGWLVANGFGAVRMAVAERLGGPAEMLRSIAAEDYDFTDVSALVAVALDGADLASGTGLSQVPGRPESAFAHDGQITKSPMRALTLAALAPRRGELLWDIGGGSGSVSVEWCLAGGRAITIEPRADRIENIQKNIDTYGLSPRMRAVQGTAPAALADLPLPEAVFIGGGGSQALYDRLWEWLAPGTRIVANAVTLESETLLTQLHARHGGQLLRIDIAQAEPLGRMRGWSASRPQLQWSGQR
Experiment: C5 alkylation coupled to CobH, UV-visible and HPLC-MS
Assay type: biochemical
Details: CobH 30 uM, pH 8.0, 28°C

SMILES | C5 alkylation coupled to CobH, UV-visible and HPLC-MS (precorrin-7 60 uM) | C5 alkylation coupled to CobH, UV-visible and HPLC-MS (allyl-SAM 170 uM)
C=CC[S+](CC[C@H](N)C(=O)O)C[C@H]1O[C@@H](n2cnc3c(N)ncnc32)[C@H](O)[C@@H]1O (some centres unmarked) [allyl-SAM] | When precorrin-7 was incubated with CobL, CobH, and allyl-SAM the color | –
CC1=C(CCC(=O)O)C2=N[C@@]1(C)CC1=C(CCC(=O)O)[C@](C)(CC(=O)O)C(=N1)/C=C1\N[C@@](C)([C@@H]3N=C(C2C)[C@](C)(CCC(=O)O)[C@H]3CC(=O)O)[C@@](C)(CC(=O)O)[C@@H]1CCC(=O)O (some centres unmarked) [precorrin-7] | – | When precorrin-7 was incubated with CobL, CobH, and allyl-SAM the color
